Data reported in PubChem BioAssay AID504479 (NMMLSC, 2011).
Activity calls are given as the source filed them.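 The calls were made as follows: active = GFP ratio vs DMSO below 0.65 in a strain, using the primary screen cutoff set for that strain's protein target; inactive = the rest.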

Experiments:
Experiment in all cases: TORC1 pathway position of GFP reporter effects – S. cerevisiae, TORC1 bypass vs wild-type strains, mechanism study for yeast TOR pathway modulator project (AID 504479)
Conditions in all cases: fluorescence ratio vs DMSO, at 10 µM
[1] = tested on: YCR005C
[2] = tested on: YCL025C
[3] = tested on: YBR084C-A
[4] = tested on: YNL142W
[5] = tested on: YKL103C
[6] = tested on: BY4741
[7] = CIT2-GFP in TORC1 bypass strain, stronger effect = higher value
[8] = AGP1-GFP in TORC1 bypass strain, stronger effect = higher value
[9] = RPL19A-GFP in TORC1 bypass strain, stronger effect = lower value
[10] = MEP2-GFP in TORC1 bypass strain, stronger effect = higher value
[11] = LAP4-GFP in TORC1 bypass strain, stronger effect = higher value

| Compound | GFP ratio vs DMSO [1, 7] | GFP ratio vs DMSO [1] | GFP ratio vs DMSO [2, 8] | GFP ratio vs DMSO [2] | GFP ratio vs DMSO [3, 9] | GFP ratio vs DMSO [3] | GFP ratio vs DMSO [4, 10] | GFP ratio vs DMSO [4] | GFP ratio vs DMSO [5, 11] | GFP ratio vs DMSO [5] | GFP ratio vs DMSO [6] |
| --- | --- | --- | --- | --- | --- | --- | --- | --- | --- | --- | --- |
| CC(C)(C)C(=O)NC(=S)NNC(=O)c1ccc(-c2ccccc2)cc1 | 0.935 | 1.37 (inactive) | 1.03 | 1.07 (inactive) | 1.2 | 1.25 (inactive) | 1.27 | 1.51 (inactive) | 1.47 | 2.48 | 1.36 (inactive) |
| Cc1cc(C(=O)Nc2nc(-c3ccccn3)cs2)ccc1[N+](=O)[O-] | 0.839 | 0.907 (inactive) | 1.03 | 1.05 (inactive) | 0.905 | 0.985 (inactive) | 1.04 | 0.972 (inactive) | 0.998 | 1.02 (inactive) | 0.896 (inactive) |
| CCSc1nnc(NC(=O)c2ccccn2)s1 | 0.867 | 0.907 (inactive) | 0.987 | 0.979 (inactive) | 0.97 | 0.972 (inactive) | 1.06 | 1.01 (inactive) | 1.14 | 1.2 (inactive) | 0.875 (inactive) |
| CCCOc1ccc(C(=O)NNC(=S)NC(=O)CC)cc1 | 0.905 | 0.994 (inactive) | 0.969 | 1.17 (inactive) | 1.36 | 1.33 (inactive) | 1.3 | 1.24 (inactive) | 1.92 | 2.96 | 1.32 (inactive) |
| O=[N+]([O-])c1cc(S(=O)(=O)C(F)(F)F)ccc1Sc1nc2ccccc2s1 | 0.848 | 0.985 (inactive) | 0.722 | 0.876 (inactive) | 0.993 | 0.985 (inactive) | 0.92 | 0.887 (inactive) | 1.22 | 1.71 | 0.811 (inactive) |
| O=C1ON=C(c2ccccc2)/C1=C\c1ccco1 | 0.826 | 1.1 (inactive) | 0.759 | 1.01 (inactive) | 0.897 | 0.947 (inactive) | 0.993 | 1.1 (inactive) | 1.26 | 1.97 | 0.875 (inactive) |
| O=C(OCn1ncc(Br)c(Br)c1=O)c1c(F)cccc1F | 0.891 | 1.02 (inactive) | 0.715 | 0.903 (inactive) | 1.05 | 1 (inactive) | 0.876 | 0.897 (inactive) | 1.37 | 1.86 | 0.824 (inactive) |
| O=[N+]([O-])c1cc(O)c2ncccc2c1 | 0.869 | 0.806 (inactive) | 0.739 | 0.763 (inactive) | 0.993 | 1.01 (inactive) | 0.918 | 0.698 (inactive) | 1.29 | 1.4 (inactive) | 1.5 (inactive) |
| O=C(Oc1c(Cl)cc(Cl)c2cccnc12)c1cccc([N+](=O)[O-])c1 | 0.791 | 1.07 (inactive) | 0.717 | 0.875 (inactive) | 1.12 | 1.18 (inactive) | 1.01 | 0.95 (inactive) | 1.15 | 1.68 | 0.774 (inactive) |
| COc1ccc(/C=C/C(=O)NC(=S)NNC(=O)c2cnccn2)cc1 | 0.87 | 1.03 (inactive) | 0.694 | 0.807 (inactive) | 0.981 | 0.94 (inactive) | 1.03 | 1.14 (inactive) | 1.18 | 1.51 | 0.962 (inactive) |
| CCc1ccc(OCC(=O)NNC(=S)NC(=O)C2CC2)c(Br)c1 | 0.796 | 0.882 (inactive) | 0.819 | 1.1 (inactive) | 1.03 | 1.15 (inactive) | 1.13 | 1.23 (inactive) | 1.3 | 2.76 | 1.41 (inactive) |
| O=C1ON=C(c2ccccc2)/C1=C/c1ccco1 | 0.825 | 1.34 (inactive) | 0.65 | 0.853 (inactive) | 0.972 | 0.965 (inactive) | 1.01 | 1.03 (inactive) | 1.17 | 1.64 | 0.912 (inactive) |
| CO[C@H]1C[C@@H]2CC[C@@H](C)[C@@](O)(O2)C(=O)C(=O)N2CCCC[C@H]2C(=O)O[C@H]([C@H](C)C[C@@H]2CC[C@@H](O)[C@H](OC)C2)CC(=O)[C@H](C)/C=C(\C)[C@@H](O)[C@@H](OC)C(=O)[C@H](C)C[C@H](C)/C=C/C=C/C=C/1C | 2.4 | 3.29 | 1.51 | 2.28 | 0.67 | 0.597 | 1.01 | 12.5 | 1.17 | 2.52 | 1.1 (inactive) |
| O=[N+]([O-])c1ccc(S(=O)(=O)c2cccc(C(F)(F)F)c2)nc1 | 0.934 | 0.976 (inactive) | 0.813 | 1.04 (inactive) | 0.969 | 0.902 (inactive) | 1.04 | 1.52 (inactive) | 1.63 | 2.2 | 1.03 (inactive) |
| O=S(=O)(CCN(CCS(=O)(=O)C(F)(F)F)CC1CCCO1)C(F)(F)F (stereo not given) | 1.29 | 1.41 (inactive) | 0.817 | 0.958 (inactive) | 1.07 | 1.05 (inactive) | 0.942 | 0.986 (inactive) | 1.2 | 1.85 | 0.958 (inactive) |
| Cc1ccc(C2=NOC(=O)/C2=C\c2ccc(C)o2)cc1 | 1.1 | 1.24 (inactive) | 0.701 | 0.907 (inactive) | 0.949 | 1.01 (inactive) | 1.49 | 1.24 (inactive) | 0.971 | 1.52 | 1.74 (inactive) |
| CC1=NN(c2ccccc2)C(=O)C1C(c1ccccc1[N+](=O)[O-])C(C#N)C#N (stereo not given) | 1.15 | 1.13 (inactive) | 0.682 | 0.947 (inactive) | 1.04 | 1.09 (inactive) | 0.948 | 1.03 (inactive) | 1.44 | 2.26 | 0.941 (inactive) |
| N/C(Cc1ccc(Cl)cc1)=N\OC(=O)c1cccc2ccccc12 | 0.748 | 2.21 | 0.679 | 0.833 (inactive) | 0.818 | 0.76 (inactive) | 1.05 | 1.23 (inactive) | 0.525 | 1.24 (inactive) | 1.38 (inactive) |
| O=C(OCC(=O)N1CCN(C(=O)c2ccco2)CC1)c1cc(-c2cccc(Br)c2)nc2ccccc12 | 0.954 | 1.19 (inactive) | 1.08 | 1.2 (inactive) | 0.991 | 0.79 (inactive) | 1.01 | 1.09 (inactive) | 0.965 | 1.37 (inactive) | 0.833 (inactive) |
| CC(C)(C)C(=O)C(Cl)C(=O)Nc1ccccc1 (stereo not given) | 1.58 | 1.65 | 0.833 | 1.2 (inactive) | 0.997 | 0.885 (inactive) | 0.969 | 1.24 (inactive) | 1.5 | 2.76 | 0.941 (inactive) |
